# Assay: Iron oxidation (ferrous to ferric) during boiling in water in an open container
# Type: physicochemical
# Conditions: 2 hours
# Procedure: Dry micronutrient-loaded MPs were dispersed in water and then heated at 100° C. for 2 hours before being centrifuged at 4000 rpm for 5 min. Chemically stable MNs in both the supernatant and the MPs were quantified using the methods as described above. The stability percentage equals to the ratio of stable MN after heating as determined by HPLC to the actual loading content of the MN in the MPs. For samples in non-encapsulated form, they were either dissolved in water (water soluble vitamins such as vitamins B9 and B12) or dispersed in water (fat soluble vitamins such as vitamins A and D) before being heated for 2 hrs. Iron-loaded HA-EPO-MPs were dispersed in water and then heated at 100° C. for 2 hours and analyzed for ferrous and ferric content as described above.
# It was investigated how iron encapsulation in HA-EPO-MPs impacts oxidation during boiling in water in an open container, since both higher temperatures and atmospheric exposure will accelerate iron oxidation. For encapsulated iron, less than 2% oxidizes to ferric iron, and for non-encapsulated iron over 15% is oxidized to ferric iron (FIG. 4D).
substance,measurement,value
ferrous sulfate [Non-Encapsulated Fe],iron oxidized to ferric iron,over 15%

# Source: patent publication US20190200664A1, “WATER AND FAT SOLUBLE MICRONUTIENT STABILIZED PARTICLES” (Massachusetts Institute of Technology, priority 2018, published 2019)
